Measured values reported in publication PMC11249646, “Small-Molecule Disruptors of the Interaction between Calcium- and Integrin-Binding Protein 1 and Integrin αIIbβ3 as Novel Antiplatelet Agents” (ACS Pharmacology & Translational Science, 2024).
Like-named read-outs stand apart in the source and are kept apart here.

Tests used:
[1] = target: T1, CIB1 and αIIb interaction (CIB1-GST : F-αIIb peptide) (Homo sapiens, UniProt Q99828); experiment: FP assay, 1536-well qHTS format (primary and confirmatory screen); format: binding; conditions: for Curve Class (confirmatory screen) / CONFIRMATORY SCREEN Curve Class: qHTS curve class
T1 construct: made in house; host or cells: BL-21 plus RIL cells (E. coli)
T1 sequence (Q99828 1-191): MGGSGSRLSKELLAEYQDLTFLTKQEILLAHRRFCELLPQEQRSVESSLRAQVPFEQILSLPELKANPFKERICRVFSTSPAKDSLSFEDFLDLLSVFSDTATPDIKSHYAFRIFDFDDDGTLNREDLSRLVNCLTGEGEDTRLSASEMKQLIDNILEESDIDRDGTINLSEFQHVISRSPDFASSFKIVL

[2] = target: T2, GST-CIB1 : F-scrambled peptide (Homo sapiens, UniProt Q99828); experiment: FP scrambled-peptide counter screen, 1536-well format; format: binding; conditions: for Curve Class (counterscreen) / COUNTERSCREEN Curve Class: qHTS curve class; for IC50: read-out: IC50 [μM] (counterscreen)
T2 construct: made in house; host or cells: BL-21 plus RIL cells (E. coli)
T2 sequence (Q99828 1-191): T1 sequence (Q99828 1-191)

[3] = confirmatory screen, negative sign = inhibitory curve
[4] = confirmatory screen, read-out: IC50 [μM] (confirmatory screen)
[5] = qHTS FP screen hits, Table S2, negative = inhibition
[6] = qHTS FP screen hits, Table S2, one class per curve where COUNT > 1, negative sign = inhibitory curve
[7] = qHTS FP screen hits, Table S2, read-out: IC50
[8] = counterscreen, negative sign = inhibitory curve
[9] = Table S3, confirmatory screen, a negative sign marks inhibitory curves
[10] = Table S3, confirmatory screen, negative = inhibition
[11] = Table S3, counterscreen, YES/NO call
[12] = Table S3, counterscreen, a negative sign marks inhibitory curves
[13] = Table S3, counterscreen, negative = inhibition
[14] = qHTS primary screen hits, Table S2, negative = inhibition
[15] = qHTS primary screen hits, Table S2, negative sign = inhibitory curve
[16] = qHTS primary screen hits, Table S2, read-out: IC50
[17] = Table S3, confirmatory screen, YES/NO call
[18] = qHTS primary screen hits, Table S2, negative sign = inhibitory curve, several classes where COUNT > 1

SMILES	Efficacy (%) (confirmatory screen) ([1]; confirmatory screen)	Confirm? (confirmatory screen) ([1]; confirmatory screen, YES/NO)	Curve Class (confirmatory screen) [1, 3]	IC50 [1, 4]	Efficacy (%) [1, 5]	IC50 [1, 7]	Efficacy (%) (counterscreen) ([2]; counterscreen)	Curve Class (counterscreen) [2, 8]	IC50 ([2]; counterscreen)	Curve Class (confirmatory screen) [1, 9]	Efficacy (%) (confirmatory screen) [1, 10]	Curve Class (counterscreen) [2, 12]	Efficacy (%) (counterscreen) [2, 13]	Efficacy (%) [1, 14]	IC50 [1, 16]	Curve Class [1, 18]	other results
CNc1ccc(C(=O)Oc2cc(ON=[N+]([O-])N(C)C)c([N+](=O)[O-])cc2[N+](=O)[O-])cc1 [NCGC00168169-02]	-42%	YES	-1.2	14.1 µM	-30%	22.4 µM	-40%	-2.2	39.8 µM								Curve Class [1, 6]: -1.2
CC(=O)Nc1sc2c(c1-c1nc3ccccc3s1)CNC2.O=C(O)C(F)(F)F [NCGC00185090-03]					-28%	12.6 µM				4	-34%	-2.4	-43%				Confirm? (counterscreen) [2, 11]: YES; IC50 ([2]; Table S3, counterscreen): 50.1 µM
COc1cccc2nc(-c3cccs3)nc(NN3C(=O)C=C(C)C3=O)c12 [NCGC00161703-02]	-63%	YES	-1.4	8.9 µM			-30%	-1.4	17.8 µM					-24%	3 µM		Curve Class [1, 15]: -1.4
Cc1ccccc1NC(=O)CN1C(=O)N/C(=C\c2cn(-c3cccc(C(=O)O)c3)cn2)C1=O [NCGC00182400-01]					-24%	11.2 µM				4	-21%	4	-14%				
NS(=O)(=O)c1ccc(Nc2nc(-c3ccccc3)cs2)cc1.O=C(O)C(F)(F)F [NCGC00262411-01]										-2.2	-84%	-2.1	-98%	-58%	50.1 µM	-2.2	Confirm? (confirmatory screen) [1, 17]: YES; IC50 ([2]; Table S3, counterscreen): 44.7 µM
Cl.O=[N+]([O-])c1cccc(CNc2ccc(S(=O)(=O)Nc3nccs3)cc2)c1O [NCGC00273554-01]	-49%	YES	-2.4	22.4 µM			-43%	-2.2	50.1 µM					-27%	7.1 µM	-1.4	
Nc1nc2c(s1)C(c1ccccc1C(F)(F)F)CC(=O)N2.O=C(O)C(F)(F)F (stereo not shown) [NCGC00488247-02]					-83%	44.7 µM				4	-12%	-2.4	-39%				Curve Class [1, 6]: -2.2; Confirm? (counterscreen) [2, 11]: YES; IC50 ([2]; Table S3, counterscreen): 28.2 µM
O=C(O)C(F)(F)F.O=C1Nc2ccccc2/C1=N/NC(=S)Nc1c(F)cc(F)cc1F [NCGC00229537-01]														-30%	12.6 µM	-1.4	CONFIRMATORY SCREEN Efficacy (%) ([1]; confirmatory screen): -26%; CONFIRMATORY SCREEN Curve Class ([1]; confirmatory screen): 4; COUNTERSCREEN Efficacy (%) ([2]; counterscreen): -11%; COUNTERSCREEN Curve Class ([2]; counterscreen): 4
O=C1Nc2cc(Cl)ccc2Nc2cscc21 [NCGC00167991-01]	-75%	YES	-3				-57%	-3	50.1 µM					-66%	79.4 µM	-2.2	
CC(=O)c1c(O)cc2c(c1C)C(=O)CC(O)C2 (stereo not shown) [NCGC00380695-01]					-53%	56.2 µM				4	-25%	-3	0%				Curve Class [1, 6]: -2.2
CC1=C(O)C(=O)C=C2C1=CC=C1[C@@]2(C)CC[C@@]2(C)[C@@H]3C[C@](C)(C(=O)O)CC[C@]3(C)CC[C@]12C [NCGC00178913-04]	-135%	YES	-1.1	22.4 µM	-84%	34.1 µM	-107%	-2.1	44.7 µM								Curve Class [1, 6]: -3
COc1cc([C@H]2Oc3cc([C@H]4Oc5cc(O)cc(O)c5C(=O)[C@@H]4O)ccc3O[C@@H]2CO)ccc1O [NCGC00091057-05]																	CONFIRMATORY SCREEN Efficacy (%) ([1]; confirmatory screen): -30%; CONFIRMATORY SCREEN Curve Class ([1]; confirmatory screen): 4; COUNTERSCREEN Efficacy (%) ([2]; counterscreen): 0%; COUNTERSCREEN Curve Class ([2]; counterscreen): 4
O=C1NC(c2ccc(N3CCOCC3)cc2)(c2ccsc2)CC(O)=C1Sc1ccccc1Cl (stereo not shown) [NCGC00388532-05]	-53%	YES	-2.4	44.7 µM			-48%	-2.2	31.6 µM					-27%	0.9 µM	-1.4	
CC(C)c1ccccc1Cc1cc(C(=O)Nc2ccc(S(=O)(=O)c3ccccc3C(C)(C)C)cc2)c(O)c(O)c1O [NCGC00263208-01]	-56%	YES	-1.2	14.1 µM			-40%	-1.2	15.8 µM					-27%	15.2 µM		Curve Class [1, 15]: -2.4
Nc1cccc2c1C(=O)N(C1CCC(=O)NC1=O)C2=O (stereo not shown) [NCGC00346551-01]										-2.2	-78%	-2.1	-91%	-43%	21.5 µM	-2.2	Confirm? (confirmatory screen) [1, 17]: YES; IC50 ([1]; Table S3, confirmatory screen, read-out: IC50 [μM] (confirmatory screen)): 50.1 µM; IC50 ([2]; Table S3, counterscreen): 44.7 µM
Cc1ccc(C(=O)NC(c2ccco2)c2cc(Cl)c3cccnc3c2O)cc1 (stereo not shown) [NCGC00188372-01]										4	-11%		42%	-23%	31.6 µM		Curve Class [1, 15]: -1.4; IC50 ([2]; Table S3, counterscreen): 89.1 µM
O=c1c(O)c(-c2ccc(O)c(O)c2)oc2cc(O)cc(O)c12 [NCGC00015870-16]	-32%	YES	-2.4				-31%	4									Confirm? (counterscreen) ([2]; counterscreen, YES/NO): YES
